{"source": "paper PMC7287882", "about": "“Dual miRNases for Triple Incision of miRNA Target: Design Concept and Catalytic Performance” (Molecules, 2020)", "test_system": "miR-155", "test": "Ribonuclease activity assay with DC or ON and RNase H, miR-155", "assay_type": "biochemical", "procedure": "It is known that DNA-like antisense oligonucleotides after binding to target RNAs form a substrate for intracellular endonuclease RNases H. RNA hydrolysis in RNA-DNA heteroduplex by RNase H1 occurs at a distance of 6–10 nucleotides from the 5′-end of RNA (approximately one turn of the helix). Our design of the Dual conjugates here was carried out in such a way to ensure that their heteroduplexes with the matching miRNA sequences could serve as potential substrates for RNase H. To achieve that, we ensured that the length of the oligonucleotide recognition motifs A and B within the DC was 8–10 nt, which was expected to be sufficient for interaction and cleavage by RNase H (see Figure 1 and Table 1). As indicated above, a few adenine aromatic basis within each recognition motifs A and B were replaced with 2-aminoadenines to enhance the hybridization ability of the DC with miRNA. […] In order to verify this, as well as to evaluate the ability of RNase H to contribute to the miRNA cleavage catalyzed by DC, we studied the kinetics of the target miRNA cleavage performed (1) by the DC alone; (2) by RNase H, when the target miRNA was hybridized with the nonconjugated Dual oligonucleotide (ON); and (3) by both DC and RNase H present in the same reaction mixture. The study was performed against miR-17, miR-155 and miR-21 using a 20-fold excess of DCs or respective oligonucleotides over the matching miRNA (see Table 1 for sequences).\nFigure 6 Cleavage kinetics of 5′-[^32P]-labeled miRNAs by DCs and/or RNase H. (a,d,g). […]\nThe reaction mixture (10 µL) containing 20 mM Tris-HCl, pH 7.8, 40 mM KCl, 8 mM MgCl2, 1 mM DTT, 0.02 mg/mL BSA, 800 cpm (Cherenkov’s counting) of [^32P]-miRNA, 1 µM unlabeled miRNA, 20 µM either DC or Dual oligonucleotide was incubated at 37 °C for 20 min then RNase H (5 or 100 U/mL) was added and the mixture was further incubated for 48 h. Aliquots were taken at 0, 1, 6, 24 and 48 h then the reaction was quenched, RNA cleavage products were collected and analyzed as described above.", "data": [{"substance": "ACCCCTAT–linker 1–[GRLRL]2–linker 2–TTAGCATTAA [miRNA-155-DC, Dual oligonucleotide-peptide conjugate targeted to miR-155: catalytic peptide [LRLRG]2 between two 2-aminoadenine-containing oligodeoxyribonucleotides]", "values": [{"measurement": "maximum extent of cleavage with DC and RNase H relative to DC alone", "value": "about 2 fold"}, {"measurement": "total extent of cleavage in the complex with DC relative to the miRNA/ON complex", "setting": "RNase H 5 u/mL", "value": "~1.5", "unit": "fold"}, {"measurement": "maximum extent of cleavage with DC and RNase H", "setting": "miRNA 1 µM, DC 20 µM, buffer (2), 37 °C, plateau", "value": 75, "unit": "%"}]}]}
